# Values joined by “and” are separate entries in the source; they are usually repeats but may differ in a detail not shown here. Identical values can stand only once. Toxic doses and inconclusive results are not listed.
# System: L1210 leukemia ip in BDF1 mice, survival T/C
# Test: NCI In Vivo Anticancer Drug Screen. Data for tumor model L1210 Leukemia (intraperitoneal) in B6D2F1 (BDF1) mice
# Settings: endpoint: mean survival time, higher = longer survival
# Outline: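 Tumor cells were implanted, animals were treated, and survival was followed. The result divides the treated measurement by the vehicle-control measurement.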
# [1] = dose: 100.0 mg/kg/injection, schedule: Q04DX003 (ip), vehicle: saline with Tween-80
# [2] = dose: 200.0 mg/kg/injection, schedule: Q04DX003 (ip), vehicle: saline with Tween-80
# [3] = dose: 400.0 mg/kg/injection, schedule: Q04DX003 (ip), vehicle: saline with Tween-80
# [4] = dose: 100.0 mg/kg/injection, schedule: Q01DX001 (ip), vehicle: saline
# [5] = dose: 25.0 mg/kg/injection, schedule: Q04DX003 (ip), vehicle: saline
# [6] = dose: 50.0 mg/kg/injection, schedule: Q04DX003 (ip), vehicle: saline
# [7] = dose: 25.0 mg/kg/injection, schedule: Q01DX009 (ip), vehicle: saline
# [8] = dose: 50.0 mg/kg/injection, schedule: Q01DX009 (ip), vehicle: saline
# [9] = dose: 100.0 mg/kg/injection, schedule: Q04DX003 (ip), vehicle: saline
compound,measurement,setting,value
Cn1c(CCCC(=O)O)nc2cc(N(CCCl)CCCl)ccc21,T/C,"dose: 2.5 mg/kg/injection, schedule: Q01DX001 (ip), vehicle: other",101 % of control
same,T/C,"dose: 2.5 mg/kg/injection, schedule: Q01DX009 (ip), vehicle: other",111 % of control
same,T/C,"dose: 4.37 mg/kg/injection, schedule: Q01DX001 (ip), vehicle: saline",106 % of control
same,T/C,"dose: 4.37 mg/kg/injection, schedule: Q04DX003 (ip), vehicle: saline",115 % of control
same,T/C,"dose: 5.0 mg/kg/injection, schedule: Q01DX001 (ip), vehicle: other",109 % of control
same,T/C,"dose: 5.0 mg/kg/injection, schedule: Q01DX009 (ip), vehicle: Klucel (hydroxypropylcellulose) (HPC)",117 % of control
same,T/C,"dose: 5.0 mg/kg/injection, schedule: Q01DX009 (ip), vehicle: other",117 % of control
same,T/C,"dose: 5.0 mg/kg/injection, schedule: Q04DX003 (ip), vehicle: other",120 % of control
same,T/C,"dose: 6.6 mg/kg/injection, schedule: Q01DX009 (ip), vehicle: Klucel (hydroxypropylcellulose) (HPC)",110 % of control
same,T/C,"dose: 8.75 mg/kg/injection, schedule: Q01DX001 (ip), vehicle: saline",117 % of control
same,T/C,"dose: 8.75 mg/kg/injection, schedule: Q04DX003 (ip), vehicle: saline",123 % of control
same,T/C,"dose: 10.0 mg/kg/injection, schedule: Q01DX001 (ip), vehicle: other",111 % of control and 124 % of control
same,T/C,"dose: 10.0 mg/kg/injection, schedule: Q01DX009 (ip), vehicle: acetone",114 % of control
same,T/C,"dose: 10.0 mg/kg/injection, schedule: Q01DX009 (ip), vehicle: other",120 % of control
same,T/C,"dose: 10.0 mg/kg/injection, schedule: Q04DX003 (ip), vehicle: Klucel (hydroxypropylcellulose) (HPC)",117 % of control
same,T/C,"dose: 10.0 mg/kg/injection, schedule: Q04DX003 (ip), vehicle: other",118 % of control
same,T/C,"dose: 12.5 mg/kg/injection, schedule: Q01DX001 (ip), vehicle: saline",116 % of control
same,T/C,"dose: 17.5 mg/kg/injection, schedule: Q01DX001 (ip), vehicle: saline",116 % of control
same,T/C,"dose: 17.5 mg/kg/injection, schedule: Q04DX003 (ip), vehicle: saline",116 % of control
same,T/C,"dose: 20.0 mg/kg/injection, schedule: Q01DX001 (ip), vehicle: carboxymethylcellulose (CMC)",117 % of control
same,T/C,"dose: 20.0 mg/kg/injection, schedule: Q01DX001 (ip), vehicle: other",122 % of control
same,T/C,"dose: 20.0 mg/kg/injection, schedule: Q01DX009 (ip), vehicle: Klucel (hydroxypropylcellulose) (HPC)",117 % of control
same,T/C,"dose: 20.0 mg/kg/injection, schedule: Q01DX009 (ip), vehicle: acetone",110 % of control
same,T/C,"dose: 20.0 mg/kg/injection, schedule: Q04DX003 (ip), vehicle: Klucel (hydroxypropylcellulose) (HPC)",119 % of control
same,T/C,"dose: 20.0 mg/kg/injection, schedule: Q04DX003 (ip), vehicle: other",118 % of control
same,T/C,"dose: 25.0 mg/kg/injection, schedule: Q01DX001 (ip), vehicle: other",119 % of control
same,T/C,"dose: 25.0 mg/kg/injection, schedule: Q01DX001 (ip), vehicle: saline",115 % of control
same,T/C,"dose: 25.0 mg/kg/injection, schedule: Q01DX009 (ip), vehicle: Klucel (hydroxypropylcellulose) (HPC)",89 % of control
same,T/C,"dose: 26.4 mg/kg/injection, schedule: Q04DX003 (ip), vehicle: saline",124 % of control
same,T/C,"dose: 35.0 mg/kg/injection, schedule: Q01DX001 (ip), vehicle: Klucel (hydroxypropylcellulose) (HPC)",115 % of control
same,T/C,"dose: 40.0 mg/kg/injection, schedule: Q01DX001 (ip), vehicle: carboxymethylcellulose (CMC)",117 % of control
same,T/C,"dose: 40.0 mg/kg/injection, schedule: Q01DX009 (ip), vehicle: Klucel (hydroxypropylcellulose) (HPC)",87 % of control
same,T/C,"dose: 40.0 mg/kg/injection, schedule: Q01DX009 (ip), vehicle: other",88 % of control
same,T/C,"dose: 40.0 mg/kg/injection, schedule: Q04DX003 (ip), vehicle: other",115 % of control and 123 % of control
same,T/C,"dose: 40.0 mg/kg/injection, schedule: Q04DX003 (ip), vehicle: saline",119 % of control
same,T/C,"dose: 50.0 mg/kg/injection, schedule: Q01DX001 (ip), vehicle: Klucel (hydroxypropylcellulose) (HPC)",123 % of control
same,T/C,"dose: 50.0 mg/kg/injection, schedule: Q01DX001 (ip), vehicle: other",156 % of control
same,T/C,"dose: 75.0 mg/kg/injection, schedule: Q01DX001 (ip), vehicle: Klucel (hydroxypropylcellulose) (HPC)",112 % of control
same,T/C,"dose: 75.0 mg/kg/injection, schedule: Q01DX001 (ip), vehicle: other",110 % of control
same,T/C,"dose: 80.0 mg/kg/injection, schedule: Q01DX001 (ip), vehicle: carboxymethylcellulose (CMC)",112 % of control
same,T/C,"dose: 80.0 mg/kg/injection, schedule: Q01DX001 (ip), vehicle: other",114 % of control
same,T/C,"dose: 80.0 mg/kg/injection, schedule: Q04DX003 (ip), vehicle: other",87 % of control and 91 % of control
ON=C1CCC(CC2CCCCC2)CC1 (stereo not given),T/C,[1],95 % of control
same,T/C,[2],100 % of control
same,T/C,[3],101 % of control
CCCCC(C)O[Si](C)C1(C)CCCCC1 (stereo not given),T/C,[1],94 % of control
same,T/C,[2],95 % of control
same,T/C,[3],106 % of control
Cc1cc(C)c(S(=O)(=O)O)c(Cc2ccc3ccccc3c2)c1,T/C,[4],94 % of control
O=C(O)C1CCC1(C(=O)O)C(=O)O (stereo not given),T/C,"dose: 100.0 mg/kg/injection, schedule: Q04DX002 (ip), vehicle: saline",94 % of control
same,T/C,"dose: 200.0 mg/kg/injection, schedule: Q04DX002 (ip), vehicle: saline",90 % of control
same,T/C,"dose: 400.0 mg/kg/injection, schedule: Q04DX002 (ip), vehicle: saline",94 % of control
CCCCCc1cc[n+](CC(O)c2ccccc2)cc1 (stereo not given),T/C,[4],94 % of control
CCOP(=O)(/N=C1/C2CCC(C2)C1C)OCC (stereo not given),T/C,"dose: 12.5 mg/kg/injection, schedule: Q04DX003 (ip), vehicle: saline",94 % of control
same,T/C,[5],105 % of control
same,T/C,[6],102 % of control
O=C(CCCc1ccc(N(CCCl)CCCl)cc1)NCc1ccccc1,T/C,"dose: 4.0 mg/kg/injection, schedule: Q12HX018 (ip), vehicle: other",112 % of control
same,T/C,"dose: 6.0 mg/kg/injection, schedule: Q12HX018 (ip), vehicle: other",103 % of control
same,T/C,"dose: 8.0 mg/kg/injection, schedule: Q12HX018 (ip), vehicle: other",108 % of control
O=C1NC2CCC1c1ccccc12 (stereo not given),T/C,"dose: 50.0 mg/kg/injection, schedule: Q01DX001 (ip), vehicle: carboxymethylcellulose (CMC)",110 % of control
same,T/C,"dose: 100.0 mg/kg/injection, schedule: Q01DX001 (ip), vehicle: carboxymethylcellulose (CMC)",105 % of control
same,T/C,"dose: 200.0 mg/kg/injection, schedule: Q01DX001 (ip), vehicle: carboxymethylcellulose (CMC)",108 % of control
CC(CN1CCCC1)C(O)(Cc1ccccc1)c1ccccc1 (stereo not given),T/C,[7],95 % of control
same,T/C,[8],95 % of control
same,T/C,[9],92 % of control
Nc1cc(Nc2ccc(CCO)cc2)nc(N)n1,T/C,"dose: 200.0 mg/kg/injection, schedule: Q01DX Z (ip), vehicle: methylcellulose (MC)",86 % of control
O=S1(=O)CC(c2ccc(Cl)cc2)Nc2ccccc21 (stereo not given),T/C,"dose: 100.0 mg/kg/injection, schedule: Q01DX001 (ip), vehicle: Klucel (hydroxypropylcellulose) (HPC)",87 % of control
same,T/C,"dose: 100.0 mg/kg/injection, schedule: Q01DX009 (ip), vehicle: Klucel (hydroxypropylcellulose) (HPC)",90 % of control
same,T/C,"dose: 100.0 mg/kg/injection, schedule: Q04DX003 (ip), vehicle: Klucel (hydroxypropylcellulose) (HPC)",103 % of control
same,T/C,"dose: 200.0 mg/kg/injection, schedule: Q01DX001 (ip), vehicle: Klucel (hydroxypropylcellulose) (HPC)",93 % of control
same,T/C,"dose: 200.0 mg/kg/injection, schedule: Q01DX009 (ip), vehicle: Klucel (hydroxypropylcellulose) (HPC)",90 % of control
same,T/C,"dose: 200.0 mg/kg/injection, schedule: Q04DX003 (ip), vehicle: Klucel (hydroxypropylcellulose) (HPC)",100 % of control
same,T/C,"dose: 400.0 mg/kg/injection, schedule: Q01DX001 (ip), vehicle: Klucel (hydroxypropylcellulose) (HPC)",93 % of control
same,T/C,"dose: 400.0 mg/kg/injection, schedule: Q01DX009 (ip), vehicle: Klucel (hydroxypropylcellulose) (HPC)",93 % of control
same,T/C,"dose: 400.0 mg/kg/injection, schedule: Q04DX003 (ip), vehicle: Klucel (hydroxypropylcellulose) (HPC)",92 % of control
O=C(CCl)C1C(O)=[N+](c2ccccc2)C2C=CC=CN12 (stereo not given),T/C,[7],92 % of control
same,T/C,[5],92 % of control
same,T/C,[8],89 % of control
same,T/C,[6],102 % of control
same,T/C,[4],105 % of control
same,T/C,"dose: 100.0 mg/kg/injection, schedule: Q01DX009 (ip), vehicle: saline",87 % of control
same,T/C,[9],95 % of control
same,T/C,"dose: 150.0 mg/kg/injection, schedule: Q01DX009 (ip), vehicle: saline",95 % of control
same,T/C,"dose: 225.0 mg/kg/injection, schedule: Q01DX009 (ip), vehicle: saline",95 % of control
same,T/C,"dose: 335.0 mg/kg/injection, schedule: Q01DX009 (ip), vehicle: saline",95 % of control
